Source: patent US20110166097A1, “TAXANE COMPOUNDS FOR TREATING EYE DISEASE” (Osiris Therapeutics, Inc., priority 2008, published 2011)

Experiments:
[1] = tested on: viable circulating endothelial cell precursors (CEPS); assay: Cobalamin-paclitaxel bioconjugate dose study: viable circulating endothelial cell precursors; assay type: in vivo; conditions: mice
Protocol: (§1) The effects on counts of viable circulating endothelial cell precursors and white blood cells are measured after 28 days. Corresponding amounts of the cobalamin-paclitaxel bioconjugate, viable circulating endothelial cell precursors (CEPS), and white blood cells are presented in the Table 1:

white blood cells = assay: Cobalamin-paclitaxel bioconjugate dose study: white blood cell count; assay type: in vivo; conditions: mice, about 2 mg/kg, 28 days
Protocol: as §1

[2] = tested on: bFGF-stimulated formation of new blood vessel in the Matrigel plug; assay: Matrigel plug perfusion in vivo assay; conditions: mice, 2, 6 and 30 mg/kg (paclitaxel units), oral gavage
Protocol: A Matrigel® plug perfusion in vivo assay is performed to determine the anti-angiogenic efficacy of the cobalamin-paclitaxel bioconjugate (Cob-Pac) of Example 1. The assay uses Matrigel®, a gelatinous protein mixture secreted by mouse tumor cells (BD Biosciences, San Jose, Calif.), to duplicate tissue environments. Matrigel® is liquid at room temperature, but when injected into the animal, forms a solid plug. If a growth vessel stimulant such as basic fibroblast growth factor (bFGF) is mixed with the Matrigel®, the bFGF stimulates the formation of new blood vessel in the plug, which can be monitored in the animal via fluorescence techniques. In the current study, Matrigel® is injected either alone or with bFGF subcutaneously into mice.

[3] = tested on: choroidal neovascularization by laser burns of the eye; assay: Choroidal neovascularization model (fluorescein angiography leakage score); assay type: in vivo; conditions: rats
Protocol: Groups of 8 rats/dosage group or vehicle are neovascularized by laser burns on the eye. Afterwards, the eye is immediately treated with a cobalamin-paclitaxel bioconjugate prepared in accordance with Example 1 at a dose of 1.5 μg/2 μL, 5.0 μg/2 μL, and 15 μg/2 μL (indicated as B.C. in FIG. 1). The treatment regimen also includes a vehicle and Kenacort Retard® (4% triamcinolone acetonide), as a positive control. Each treatment is scored at 7, 14, and 21 days post-treatment by infusing the eye with fluorescein and scoring the leakage using angiography. A score of 0 indicates no leakage while a score of 3 indicates severe leakage.

[4] = tested on: choroidal neovascularization lesions; assay: Lesion study (flat mount evaluation, choroidal neovascularization); assay type: in vivo, rats; conditions: after 21 days
Protocol: In another study, flat mount evaluation of the eyes can be carried out at the end of the study because angiography may not provide a full evaluation of the effect of the drug. At the end of the study, the eyes are removed, histologically processed and all lesions can be seen (including those that can not be detected by angiography). Such an evaluation can be used as a better measure of the choroidal neovascularization model.
Dosages used are 1.5 μg/2 μL, 5.0 μg/2 μL, and 15 μg/2 μL. The treatments also include a vehicle and Kenacort Retard® (4% triamcinolone acetonide). After 21 days, the eyes are removed, histologically processed, and the lesion size scored in μm^3.

Water solubility = assay type: physicochemical; conditions: conjugated to cobalt atom of cobalamin

**Q.** With `CC(=O)O[C@H]1C(=O)[C@@]2(C)C([C@H](OC(=O)c3ccccc3)[C@]3(O)C[C@H](OC(=O)[C@H](OC(=O)C[NH+](C)CC[CH2][Co+][N]4/C5=C(/C)C6=N/C(=C\C7=NC(=C(/C)C8=NC(C(C)C4C(CC(N)=O)C5(C)CCC(=O)NCC(C)OP(=O)([O-])OC4C(CO)OC(n5cnc9cc(C)c(C)cc95)C4O)C(C)(CC(N)=O)C8CCC(N)=O)/C(C)(CC(N)=O)C7CCC(N)=O)C(C)(C)C6CCC(N)=O)[C@@H](NC(=O)c4ccccc4)c4ccccc4)C(C)=C1C3(C)C)[C@]1(OC(C)=O)COC1C[C@@H]2O.[Cl-]` (stereo partly drawn) [cobalamin-paclitaxel bioconjugate, Cbl-(CH2)3N(CH3)CH2COO-2′-PTX] as the compound, how does the “Most effective dose (viable CEPS)” value ([1]; 28-day dose study, dose as paclitaxel) read?
**A.** about 2 mg/kg

**Q.** And the “Anti-angiogenic effect on viable CEPS” value ([1]; at each dose (1.5-30 mg/kg), 28 days)?
**A.** marked decrease in viable CEPS

**Q.** And the “Toxicity by white blood cell count” value (white blood cells)?
**A.** no neutropenia

**Q.** And the “Effect on growth of new blood vessels in Matrigel plug” value [2]?
**A.** inhibits the growth of new blood vessels in each instance shown

**Q.** And the “Anti-angiogenic result by angiography leakage score (FIG. 1)” value ([3]; after 7 days, intermediate and high doses (5.0 μg/2 μL and 15 μg/2 μL) to the eye)?
**A.** show anti-angiogenic results

**Q.** And the “Anti-angiogenic result by angiography leakage score (FIG. 1)” value ([3]; after 14 days, high dose (15 μg/2 μL) to the eye)?
**A.** still provides anti-angiogenic benefit

**Q.** And the “Number of blood vessel lesions (FIG. 2)” value ([4]; rats, 1.5, 5.0 and 15 μg/2 μL to the eye)?
**A.** decrease in a concentration dependent manner

**Q.** And the “Inhibition of new blood vessel growth (lesion study)” value ([4]; rats, high and medium concentrations (15 and 5.0 μg/2 μL))?
**A.** efficacious in inhibiting new blood vessel growth

**Q.** What about the solubility (Water solubility) of the same compound?
**A.** > 100 mg/mL
